# Measurements reported in US8501924B2, “Nucleophosmin protein (NPM) mutants, corresponding gene sequences and uses thereof” (priority 2004, dated 2013).
# “Also recorded” adds a separate entry of the source.
# Legend:
# [1] = molecular target: T1, Crm1 (Homo sapiens, UniProt O14980); assay: Inhibition of Crm1-dependent nuclear exportation in transfected H1299 cells; format: cell-based; conditions: HI299 cells
# Experimental: The H1299 cells were seeded on the surface of six-well plates 24 hours before transfection. 5 μg of expression vector encoding for wild type HA-NPM, GFP-NPM-mutant A, or both, were transfected using the precipitation method with calcium-phosphate. After 24 hours, the cells were treated with 20 nM leptomycin B, a Crml specific inhibitor (Sigma, St. Louis, Mo., USA) for 8 hours or not treated, respectively. The cells then were fixed in 4% paraformaldehyde for the immunofluorescence study.
# The DAPI staining was used to visualise nucleuses of H1299 cells transfected with the GFP-NPM-mutant A and with GFP-NPM wt. For Flag-HA constructs, the fixed cells were made permeable with 0.2% Triton-X 100 (10 minutes) followed by blocking with 10% anti-goat serum (30 minutes). Then primary anti-HA antibody was added (1:1000, Roche Indianapolis, Ind., USA) for 1 hour followed by incubation for 30 minutes with the secondary Alexa-568 antibody (1:1000, Molecular Probes, Oregon, USA). The images were taken using a digital camera with the Spot 4.09 program (Diagnostic Instruments, Sterling Heights, Mich., USA).
# [2] = molecular target: T1, Crm1; assay: Nuclear re-localization of mutant NPM in OCI/AML3 cells; format: cell-based; conditions: OCI/AML3, mutation A, LMB 20 ng/ml
# [3] = molecular target: T1, Crm1; assay: Nuclear re-localization of NPM in leukaemic cells of NPMc+ AML patients (mutation A); format: cell-based; conditions: NPMc+ AML patient cells, leptomycin B 20 ng/ml
# Experimental: Cells deriving from two patients with NPMc+AML (carrying the mutation A) and from OCI/AML3 cellular line were harvested in medium (10^6 cell/ml in 24-well plates) and incubated at 37° C. with 5% CO2 […]. After the incubation overnight with leptomycin B (20 ng/ml), the cells were washed with PBS and centrifuged. The cell pellet was fixed in B5 and paraffin for the immunostaining.
# The NPM coloration of paraffin embedded sections of AML cases containing the mutation A was carried out with monoclonal anti-NPM antibodies followed by a Alexa 488 conjugated secondary (Molecular Probes, Oregon, USA); the nuclei were contra-stained with propidium iodide. The images were taken with a confocal microscope Zeiss LSM 510 (Carl Zeiss, Jena, Del.), using laser excitation wavelengths at 488 nm (for ALexa 488), 543 nm (for Texas Red and the propidium iodide) and 633 nm (for TO-PRO-3), respectively. The laser intensity tuning, diameter of pinholes, and configuration of the light detection were set to achieve the best signal/noise ratio and avoid fluorescence crossover. The images were then transferred to a SGI Octane workstation (Silicon graphics, Mountain View, Calif., USA) for further elaboration; 3D reconstruction was made with the shade or iso-surface method using the Imaris program (Bitplane, Zurich, CH).
# [4] = molecular target: T2, Crm1 (Mus musculus, UniProt Q6P5F9); assay: Inhibition of Crm1-dependent nuclear exportation in NIH-3T3 cells transfected with eGFP-NPM constructs; format: cell-based, murine; conditions: for sub-cellular localization of NPM mutant proteins after treatment (confocal microscopy): transfected NIH3T3 cells (HI299 or NIH3T3), leptomycin B 20 ng/ml
# T2 construct: endogenous in cells; host or cells: NIH-3T3 cells, transfected only with eGFP-NPM reporter constructs
# T2 sequence (Q6P5F9 whole entry): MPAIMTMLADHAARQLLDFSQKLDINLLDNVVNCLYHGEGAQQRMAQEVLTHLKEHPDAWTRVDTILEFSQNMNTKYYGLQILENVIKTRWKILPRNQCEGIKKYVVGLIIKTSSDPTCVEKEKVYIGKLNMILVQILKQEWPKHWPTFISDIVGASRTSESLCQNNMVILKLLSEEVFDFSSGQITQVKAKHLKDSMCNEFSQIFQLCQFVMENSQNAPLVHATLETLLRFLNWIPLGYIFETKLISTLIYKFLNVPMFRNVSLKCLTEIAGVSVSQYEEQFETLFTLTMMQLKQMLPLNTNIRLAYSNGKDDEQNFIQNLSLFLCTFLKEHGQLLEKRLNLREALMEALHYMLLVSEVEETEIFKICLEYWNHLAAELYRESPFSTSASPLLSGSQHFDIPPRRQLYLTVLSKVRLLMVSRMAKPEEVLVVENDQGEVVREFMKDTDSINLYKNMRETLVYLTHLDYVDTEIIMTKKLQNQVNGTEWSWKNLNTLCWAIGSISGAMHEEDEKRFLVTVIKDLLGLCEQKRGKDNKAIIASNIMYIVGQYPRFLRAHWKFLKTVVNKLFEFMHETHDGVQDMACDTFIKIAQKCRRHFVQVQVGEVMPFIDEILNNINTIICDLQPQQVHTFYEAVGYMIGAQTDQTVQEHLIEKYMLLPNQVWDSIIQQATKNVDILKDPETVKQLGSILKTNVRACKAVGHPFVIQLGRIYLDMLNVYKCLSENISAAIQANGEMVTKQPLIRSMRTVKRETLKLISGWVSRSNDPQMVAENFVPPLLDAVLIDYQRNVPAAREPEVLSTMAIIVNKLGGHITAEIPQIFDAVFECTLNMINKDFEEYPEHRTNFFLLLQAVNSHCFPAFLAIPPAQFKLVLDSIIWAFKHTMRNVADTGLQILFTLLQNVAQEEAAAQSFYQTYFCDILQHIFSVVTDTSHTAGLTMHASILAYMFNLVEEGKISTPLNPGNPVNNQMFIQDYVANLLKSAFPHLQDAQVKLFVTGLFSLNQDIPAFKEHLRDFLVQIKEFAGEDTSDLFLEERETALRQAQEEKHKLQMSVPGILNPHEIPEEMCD
# Experimental: NIH-3T3 cells were transfected using Lipofectamin 2000 (Invitrogen Carlsbad, Calif., USA) following the manufacturer instructions. After 24 hours, the cells grown on the slide were incubated with cycloeximide (Merck Biosciences Ltd, Nottingham UK) 10 micro grams/ml (30 minutes) and leptomycin B (Merck Biosciences Ltd, Nottingham UK) 20 ng/ml (5 hours), or other Crm1 inhibitors such as ratjadons A and C (Alexis Biochemicals, Carlsbad, Calif., USA) 20 ng/ml (5 hours).
# The cells were fixed in 4% paraformaldehyde (10 minutes) for immunofluorescence and confocal microscope analysis.
# For “time course” experiments, transfected cells were transferred inside an Attofluor chamber (Molecular Probes, Eugene, Oreg., USA) and were observed using a MRC-1024 confocal apparatus (Biorad Cambridge, UK) assembled on an Olympus IMT-2 microscope. The images of a single section were recorded before and after the addition of leptomicin B, at 60 second intervals, using the time-series function of Laser-Sharp program (BioRad). The excitation wavelength was 488 nm and images were detected using a filter from 505 to 550 nm on the PMT2.
# The images were processed and analysed using the well known ImageJ program (Rasband WS, Image J, U.S. National Institutes of Health, Bethesda, Md., USA, http://rsb.info.nih.gov/ij/, 1997-2005).
# For western-blotting analyses of the sub-cellular distribution of GFP-NPM mutant A protein, NIH-3T3 cells transfected with GFP vector or with GFP-NPM mutant A, as described above, were incubated with leptomicin B 20 ng/ml (or with methanol as control) without cycloeximide for 3 or 6 hours. Then cells were harvested, washed with PBS and lysed in hypotonic buffer according to the method of Schreiber et al. (1989). The supernatant was preserved as cytoplasmic fraction. The pellet, containing nuclei, was again washed with the hypotonic buffer, then solubilised in a hypertonic buffer and boiled in a solution containing SDS before loading.
# Equivalent dilutions (with the same cell number) of cytoplasmic and nuclear fractions were loaded, blotted on nitrocellulose and incubated with an anti-GFP monoclonal antibody (Roche, Indianapolis, Ind., USA) for Western-blot analysis of the distribution of GFP-NPM mutant A.
# [5] = NIH-3T3 cells, with and without LMB
# T1 sequence (O14980 whole entry): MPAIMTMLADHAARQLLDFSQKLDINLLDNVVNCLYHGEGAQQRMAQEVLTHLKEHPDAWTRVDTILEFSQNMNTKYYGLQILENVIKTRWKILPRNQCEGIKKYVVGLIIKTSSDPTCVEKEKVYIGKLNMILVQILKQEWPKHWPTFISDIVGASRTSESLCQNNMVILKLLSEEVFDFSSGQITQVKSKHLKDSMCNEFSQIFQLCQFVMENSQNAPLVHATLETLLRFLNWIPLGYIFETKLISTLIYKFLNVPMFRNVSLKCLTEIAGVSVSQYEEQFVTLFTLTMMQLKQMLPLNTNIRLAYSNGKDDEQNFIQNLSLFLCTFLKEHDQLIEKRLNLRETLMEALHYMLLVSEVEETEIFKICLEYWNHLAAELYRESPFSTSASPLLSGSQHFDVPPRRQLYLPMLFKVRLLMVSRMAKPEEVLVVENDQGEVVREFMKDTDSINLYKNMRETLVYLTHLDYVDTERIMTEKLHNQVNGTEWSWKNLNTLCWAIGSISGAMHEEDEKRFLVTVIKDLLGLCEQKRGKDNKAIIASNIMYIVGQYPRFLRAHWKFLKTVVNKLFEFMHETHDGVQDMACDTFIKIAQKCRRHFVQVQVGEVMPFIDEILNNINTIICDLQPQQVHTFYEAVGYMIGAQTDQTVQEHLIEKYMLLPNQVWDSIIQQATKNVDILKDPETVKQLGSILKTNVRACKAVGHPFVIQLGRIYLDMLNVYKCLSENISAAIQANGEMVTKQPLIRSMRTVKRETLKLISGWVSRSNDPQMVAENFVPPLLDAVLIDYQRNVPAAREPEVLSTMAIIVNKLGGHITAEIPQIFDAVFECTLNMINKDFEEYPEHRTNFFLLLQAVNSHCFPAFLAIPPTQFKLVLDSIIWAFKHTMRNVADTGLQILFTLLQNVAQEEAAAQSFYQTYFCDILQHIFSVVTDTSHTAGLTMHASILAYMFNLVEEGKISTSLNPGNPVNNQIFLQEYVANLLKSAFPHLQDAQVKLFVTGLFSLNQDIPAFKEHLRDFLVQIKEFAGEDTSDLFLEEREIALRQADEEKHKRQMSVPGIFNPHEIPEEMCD
compound,measurement,setting,value
"CCC(=C/[C@H](C)C/C=C/C(C)=C/[C@@H](C)C(=O)[C@@H](C)[C@H](O)[C@@H](C)C/C(C)=C/C(=O)O)/C=C/[C@@H]1OC(=O)C=C[C@@H]1C [Leptomycin B, leptomycin B]",localization of eGFP NPM mutants A to D,"[1]; in the presence of LMB 20 nM, 8 hours",completely replaced in the nucleus in the presence of LMB
same,localization of eGFP-NPMwt,[1]; with and without LMB,localized in nucleoli both in the presence and in the absence of LMB
same,NPM localization in OCI/AML3 cells (376 staining),[2],re-localization of NPM in the nucleoplasm
same,"NPM localization in purified leukaemic cells (376 staining, confocal)",[3],NPM is in nucleus again
same,re-localization of type E NPM mutant (tryptophan 288 kept),"[4]; NIH-3T3 cells, after Leptomicin B",not only at nucleoplasma but also at nucleolus level
same,mutant type A re-localized in nucleus,"[4]; NIH-3T3 cells, eGFP-NPMmutA, 20 minutes after LMB",About 50%
same,time for the whole re-localization process to be completed,"[4]; NIH-3T3 cells, eGFP-NPMmutA, LMB",1 h
same,Western blot sub-cellular distribution of GFP-NPM mutant A,"[4]; NIH-3T3 cells, leptomicin B 20 ng/ml, 3 or 6 hours, no cycloeximide",progressively accumulates in the pellet containing nucleuses
same,eGFP-NPMmutA fluorescence in regions of interest over time,"[4]; NIH-3T3 cells, time course after addition of LMB",reduction of fluorescence in cytoplasm and Golgi area and concomitant fluorescence increase in nucleoplasm
same,localization of GFP-NPMwt,[4]; [5],localizes in the nucleoli both in the presence and in the absence of LMB
same,localization of NPM mut A no-NES,[4]; [5],localized in the nucleoplasm both in presence and in absence of LMB
same,localization of mutant A with both tryptophans re-inserted (C288W+A290W),"[4]; NIH-3T3 cells, with and without Leptomicin B","locates completely in nucleoli, independently from the presence of Leptomicin B"
same,sub-cellular localization of NPM mutant proteins after treatment (confocal microscopy),[4]; listed as LMB,repositions in nucleoplasm
same,sub-cellular localization of NPM mutant proteins after treatment (confocal microscopy),[4]; listed as Leptomicin B,"re-localized from the cytoplasmic to the nuclear compartment (nucleoplasm); also recorded: re-localized in the nucleus and, specifically, in nucleoplasm"
